From patent US20180325930A1, “Use of Oligosaccharide Compounds for Activating Angiogenesis” (Urgo Recherche Innovation et Developpement, priority 2015, published 2018)

System: chick embryo chorioallantoic membranes (CAM)
Assay: chicken ex ovo chorioallantoic membrane (CAM) angiogenesis model
Assay type: in vivo
Text: This consists of a vascularised membrane found in bird or reptile eggs. In mammals, this structure forms the placenta. The model for the study will be a chicken ex OVO (without the shell) CAM model.
Fertilised chicken eggs were used.
For the study, VEGF-A was used as the positive control.
Potassium sucrose octasulphate salt (KSOS) is presented in the form of a solution at different concentrations, buffered with PBS.
A PBS buffer solution was used as a negative control.
On receipt, the eggs are stored at 13° C. to stop the development thereof until the time of the study. The eggs are then placed in incubation in a hatcher at 37° C. to enable the development of the embryo.
At 3 days, the eggs are broken unto a weighing cup so as to remove the shell, thereby rendering the embryo and all the structures accessible for future treatment. The ex ovo embryos are then placed back in the hatcher where they will continue the in vitro development thereof.
The embryos will be treated in the vehicle (PBS only), VEGF or different concentration of KSOS.
The treatment area is delimited by a silicone ring 1 cm in diameter and 0.2 in thickness. The treatment volume is 25 μl. The treated embryos are placed back in the hatcher for 48 hours.
After 48 hours of incubation, 10% skimmed milk is injected between the CAM and the yolk to separate the 2 vascularisations and increase the contrast for an optimal photographic shot. A photo is taken of the treatment area with a NIKON AZ 1 OO, NIS-element capture software, with 0.5×4 magnification.
On the basis of these photos, a number of parameters were determined using the image analysis software: • a) the total tube length (sum of the lengths of each vessel in the image), • b) the number of segments (total number of vessels connected to a branch point), • c) the number of branch points (total number of junctions connected to a segment). • b and c are representative of the formation of new characteristic vessels of angiogenesis.

| Compound | angiogenesis activation (significance with respect to VEGF-A or 100 mg/mL KSOS) (30 mg/mL, 48 hours) | vascular network visible (30 mg/mL, 48 hours) | angiogenesis activation (significance with respect to VEGF-A or 100 mg/mL KSOS) (50 mg/mL, 48 hours) | vascular network visible (50 mg/mL, 48 hours) | 3 parameters measured (total tube length, number of segments, number of branch points), image analysis vs PBS (100 mg/mL, 48 hours) | angiogenesis activation compared with positive control VEGF-A (100 mg/mL, 48 hours) | vascular network observed on photos (100 mg/mL, 48 hours) | CAM vascularisation at the treatment area (overall, according to the dose) (3-100 mg/mL, 48 hours) | vascular change with respect to the negative control (PBS only), photos (from 30 mg/mL, 48 hours) | concentration from which angiogenesis activation is considered significant (inferred from results at 50 and 100 mg/mL, 70 mg/mL not tested) [mg/mL] | neovascularisation of the CAM (photos of treatment area) (VEGF 0.5 μg (20 μg/mL), 25 μl, 48 hours) | 3 parameters measured (total tube length, number of segments, number of branch points), image analysis vs PBS (VEGF 0.5 μg (20 μg/mL), 48 hours) |
| --- | --- | --- | --- | --- | --- | --- | --- | --- | --- | --- | --- | --- |
| O=S(=O)([O-])OCC1OC(OC2(COS(=O)(=O)[O-])OC(COS(=O)(=O)[O-])C(OS(=O)(=O)[O-])C2OS(=O)(=O)[O-])C(OS(=O)(=O)[O-])C(OS(=O)(=O)[O-])C1OS(=O)(=O)[O-].[K+].[K+].[K+].[K+].[K+].[K+].[K+].[K+] (stereo not drawn) [KSOS, potassium sucrose octasulphate salt] | not considered to be significant | poorly developed vascular network | not considered to be significant | poorly developed vascular network | significant increase | angiogenesis activation equivalent to that observed with VEGF-A | well-developed vascular network | increase in CAM vascularisation | slight vascular change | ≥ 70 |  |  |
| VEGF [reference compound] |  |  |  |  |  |  |  |  |  |  | anarchic neovascularisation | significant increase |
